Test results taken from the Kinase Knowledgebase extract (Sharma et al. 2016).
pIC50: −log10 of the molar value.

How the values were obtained:
[1] = biological target: MAPK14 (human), Q16539 [p38(A157V) Mutant Enzyme Inhibition Assay]; assay: p38(A157V) Mutant Enzyme Inhibition Assay
[2] = biological target: MAPK14 (human) (UniProt Q16539); assay: p38 Enzyme Inhibition Assay
[3] = biological target: MAPK14 (human), Q16539 [p38(M109A) Mutant Enzyme Inhibition Assay]; assay: p38(M109A) Mutant Enzyme Inhibition Assay
Chain of MAPK14 (human), Q16539 [p38(M109A) Mutant Enzyme Inhibition Assay] (Q16539 whole entry, looked up, stated change not applied): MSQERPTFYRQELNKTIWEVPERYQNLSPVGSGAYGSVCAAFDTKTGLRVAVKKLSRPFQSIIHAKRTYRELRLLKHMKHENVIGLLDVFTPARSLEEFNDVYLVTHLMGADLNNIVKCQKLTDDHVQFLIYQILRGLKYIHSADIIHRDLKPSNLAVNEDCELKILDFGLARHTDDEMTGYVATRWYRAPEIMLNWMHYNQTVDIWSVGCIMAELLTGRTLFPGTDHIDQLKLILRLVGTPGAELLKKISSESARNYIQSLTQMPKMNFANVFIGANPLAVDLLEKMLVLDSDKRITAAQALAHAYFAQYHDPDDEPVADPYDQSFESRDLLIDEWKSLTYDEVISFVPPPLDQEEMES

Chain of MAPK14 (human), Q16539 [p38(A157V) Mutant Enzyme Inhibition Assay] (Q16539 whole entry, looked up, stated change not applied): as above
Chain of MAPK14 (human) (Q16539 whole entry, looked up): as the sequence (Q16539 whole entry, looked up, stated change not applied) above

pIC50 [1]	pIC50 [2]	pIC50 [3]	Structure (SMILES)
7.89	7.03	6.15	C[C@H](Nc1cc(-c2nc(C3CCCNC3)n(C)c2-c2cccc(C(F)(F)F)c2)ccn1)c1ccccc1 (some centres not stated)
7.24	8.40	8.12	C[S+]([O-])c1ccc(-c2cc(-c3ccc(F)cc3)c(-c3ccncc3)[nH]2)cc1 (configuration not stated)
6.35	7.92	7.43	C[S+]([O-])c1ccc(-c2cc(-c3ccc(F)c(F)c3)c(-c3ccncc3)[nH]2)cc1 (configuration not stated)
> 9.30	8.15	7.34	Cn1c(C2CCNCC2)nc(-c2cccc(C(F)(F)F)c2)c1-c1ccncc1
